Test results as given in patent US20240229043A1, “Methods and Compositions for Treating, Ameliorating, and/or Preventing Chronic Kidney Disease (CKD) and Complications thereof by Regulating DPEP1, CASP9, ACSS2 and/or FASN” (THE TRUSTEES OF THE UNIVERSITY OF PENNSYLVANIA, priority 2022, published 2024).
Peptide text beside a SMILES is read from it. * marks the point of attachment. Cbz = O=C(OCc1ccccc1)*; CH2F = FC*

What was measured:
[1] = test system: Rat epithelial cells (NRK-52E); assay: Cisplatin-induced LDH release in siControl and siChmp1a transfected cells pretreated with cell death inhibitors; format: cell-based; settings: siControl and siChmp1a cells pretreated with inhibitor 18 h, then 20 μM cisplatin 24 h
Procedure: Rat epithelial cells (NRK-52E; ATCC (CRL-1571)) were cultured in DMEM with 5% fetal bovine serum (FBS). Dpep1 and Chmp1a siRNA were purchased from Dharmacon. Dpep1-overexpressing vector pCMV6-Entry was purchased from OriGene Technologies, Inc. Transfection of gene-targeting siRNA, negative control siRNA, and overexpressing plasmid were performed using Lipofectamine 3000.
For transfection, cells were seeded in six-well plates, grown overnight until 60-70% confluency, and then transfected with 50 nM (final concentration) siRNA or 5 μg Dpep1-overexpression plasmids. Transfection efficiency was determined under a fluorescence microscope by the presence of Cy3 transfection control. […] After 24 h of Dpep1 siRNA transfection, cells were treated with cell death inducers for 18-20 h, respectively: 5 μM Nigericin (Sigma #N7143); 5 μM CPT (Cayman #11694); 5 μM erastin (Cayman #17754), 20 μM FIN56 (Cayman #25180), 5 μM FINO2 (Cayman #25096) and 5 μM RSL3 (Cayman #19288).
(§1) Mouse primary tubular epithelial cells from wild-type, mutant mice or NRK52E cells were plated in 96-well plate. Transfection of NRK52E cells with siRNA was carried out as described above. […] Cells were harvested and stained with trypan blue (Thermo Fisher #T10282) to visualize dead cells. Cell counts were analyzed in Countess Auto Counter (Invitrogen, C10227). LDH release was quantified using CytoTox 96 Non-Radioactive Cytotoxicity Assay (Promega #G1780). Medium was collected in triplicates, spun down, and incubated in a 96-well plate with the CytoTox reagent for 20-30 min. After adding the stop solution, the absorbance signal was measured at 490 nm in a plate reader. The ratio between dead cell and live cell was calculated through the measurement using MultiTox-Fluor Multiplex Cytotoxicity Assay (Promega #9201). Cells were incubated in assay buffer containing live cell substrate GF-AFC and dead cell substrate bis-AAF-R110 for 30 min at 37° C. The plate fluorescence was measured using a plate reader as following: viability: excitation ˜400 nm; emission ˜505 nm. cytotoxicity: excitation ˜485 nm; emission ˜520 nm.

FASN = FASN (Mus musculus, UniProt P19096); settings: primary TECs; various concentrations for 48 h
CASP9 = target: T1, CASP9 (Mus musculus, UniProt Q8C3Q9); assay: Cisplatin model of kidney injury, mice treated with CASP9 inhibitor; format: in vivo
T1 construct: from tissue; host or cells: living mice; read-outs in serum and kidney
Procedure: Casp9 HZ mice were obtained. Mice were injected intraperitoneally with FA (#10752485 ACROS Organics, 250 mg/kg, dissolved in […] sodium bicarbonate) or sodium bicarbonate (#56014, Sigma-Aldrich) and euthanized on day 7. Mice were euthanized on day 7 after left ureteral ligation or sham surgery. […] Mice were euthanized 18 weeks after uninephrectomy and following low-dose STZ (50 mg/kg, i.p. for 5 days) (streptozotocin, Santa Cruz Biotechnology, #U-9889) or PBS injection. Aging mice were euthanized at 2 years of age. Transgenic mice (Nphs1-rtTA/TRE-APOL1-G2) were placed on a doxycycline diet to induce transgene expression and euthanized.
RNA was isolated from kidney tissue or cells using TRIzol (Invitrogen, #15596018). RNA was reverse-transcribed using the High-Capacity cDNA Reverse Transcription Kit (Applied Biosystems, #4368813), and qRT-PCR was run in the ViiA 7 System (Life Technologies) instrument using SYBR Green Master Mix (Applied Biosystems, #4367659) and gene-specific primers. For quantitative analysis, samples were normalized to glyceraldehyde-3-phosphate dehydrogenase (GAPDH) with the ΔΔCt method.
BUN was determined by a TRACE DMA Urea kit (Thermo Electron Corporation, #TR12003), according to the manufacturer's instructions. Electrolytes (Na, K, and Cl) and hemoglobin were measured with the iSTAT Portable Clinical Analyzer using i-STAT CHEM8+ cartridge (Abaxis, #10023291). Kidney tissue was stained with hematoxylin and eosin to investigate renal injury. The degree of tubulointerstitial damage was scored semiquantitatively on a 0 to 5+ scale, according to the percentage of the area affected by hydropic degeneration, hyaline casts, cytoplasmic vacuolization, loss of the brush border, and tubular lumen dilation (0=normal, 1=<10%, 2=10 to 25%, 3=26 to 50%, 4=51 to 75%, and 5=>75%). Sirius red staining was performed according to the manufacturer's protocol (Polysciences, #24901) to determine the degree of fibrosis. For each analysis, five to eight fields were randomly selected and quantified using the Fiji software. Each dot represents the mean score of a single animal.
Several small molecular inhibitors that target CASP9 have been developed with good specificity. […] Serum creatinine and BUN levels were lower, and renal expression of Havcr1 was dampened in Z-LEHD-FMK-treated mice.

primary TECs = assay: Cisplatin-treated primary kidney tubule cells from wild-type and Chmp1a+/- mice; format: cell-based
Procedure: For primary culture of renal tubule cells, kidneys were collected from 2- to 4-week-old male mice. Cells were isolated by 2 mg/ml collagenase I (Gibco #17018-029) digestion for 30 min at 37° C. with gentle stirring and filtered through a 100-μm mesh. The cell suspension was cultured in RPMI 1640 (Corning #10-040-CM) supplement with 10% FBS (Atlanta Biologicals #S11950), 20 ng/ml EGF (Peprotech #AF-100-15), 1×ITS (Gibco #51500-056), and 1% penicillin-streptomycin (Corning #30-002-CI) at 5% CO2 and 37° C.
Primary cultured renal tubule cells or NRK52E cells were incubated with 1 μM transferrin (Thermo Fisher #T13342) for 4 h, or 5 μM mitoSOX (ThermoFisher #M36008) for 10 min, or 2 μM BODIPY™ 581/591 C11 (Thermo Fisher #D3861) for 0.5 h, or 20 ng/ml dextran conjugated to 488 (Thermo Fisher #D22910) for 2 h, at 5% CO2 and 37° C., respectively. After washing with PBS, cells were imaged directly under the confocal or regular fluorescence microscope.
as §1

ferroptosis = assay: Cisplatin-induced injury in Chmp1a+/- mice injected with liproxstatin; format: in vivo; settings: for protection from cisplatin-induced injury / kidney disease: Chmp1a+/- (heterozygous) mice
Procedure: Eight- to ten-week-old male mice were used in this study. All mice were maintained under SPF conditions with ambient temperature 20-22, humidity 50-70%, and a 12/12 h light/dark cycle. All animal experiments were reviewed and approved and were performed in accordance with the institutional guidelines. Dpep1 mutant mice were generated by co-injection of Cas9 mRNA (100 ng/μl; ThermoFisher, A29378), sgRNA (50 ng/μl) in CRISPR Cas9 Mouse Targeting Core of University of Pennsylvania. Two sgRNAs were generated with Guide-it™ sgRNA In Vitro Transcription Kit (Takara #632635). Chmp1a mutant mice were imported from Mutant Mouse Regional Resource Center of UC Davis (#031089-UCD). For FA-induced nephropathy mouse models, 8-week-old male wild-type and Dpep1^+/− or Chmp1a^+/− mice were injected with FA (250 or 200 mg/kg, dissolved in 300 mM sodium bicarbonate) intraperitoneally and euthanized on day 7. […] Mice were euthanized on day 3. For the UUO model, mice underwent ligation of the left ureter and were euthanized on day 7, and sham-operated mice were used as controls.
Serum creatinine was measured by Creatinine Enzymatic and Creatinine Standard (DIAZYME #DZ072B-KY1). Serum BUN was measured by Infinity™ Urea Liquid Stable Reagent (Pointe Scientific #B7552150). Both measurements were performed according to the manufacturers' instructions.
RNA was isolated from mouse kidneys or cultured cells using Trizol reagent (Invitrogen) and was reverse transcribed into cDNA using cDNA Archival Kit (Life Technologies). Real-time RT-PCR was performed using SYBR Green Master Mix (Applied Biosystems).

[2] = cisplatin-injected mice, inhibitor daily starting 1 day before cisplatin, vs vehicle

T1 sequence (Q8C3Q9 whole entry): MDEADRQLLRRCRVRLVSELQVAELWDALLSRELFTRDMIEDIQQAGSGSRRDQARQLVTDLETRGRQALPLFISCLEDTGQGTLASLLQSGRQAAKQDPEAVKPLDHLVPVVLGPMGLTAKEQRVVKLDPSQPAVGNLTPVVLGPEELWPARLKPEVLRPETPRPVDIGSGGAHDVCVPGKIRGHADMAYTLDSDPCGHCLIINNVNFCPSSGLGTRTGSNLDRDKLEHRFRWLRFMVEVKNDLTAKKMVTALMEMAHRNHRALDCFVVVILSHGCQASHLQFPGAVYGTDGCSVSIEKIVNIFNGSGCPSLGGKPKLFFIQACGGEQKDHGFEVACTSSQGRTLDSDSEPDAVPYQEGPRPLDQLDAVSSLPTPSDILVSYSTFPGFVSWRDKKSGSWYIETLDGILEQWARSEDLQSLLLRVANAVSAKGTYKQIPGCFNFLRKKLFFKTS
T1 sequence (O88879 whole entry partner): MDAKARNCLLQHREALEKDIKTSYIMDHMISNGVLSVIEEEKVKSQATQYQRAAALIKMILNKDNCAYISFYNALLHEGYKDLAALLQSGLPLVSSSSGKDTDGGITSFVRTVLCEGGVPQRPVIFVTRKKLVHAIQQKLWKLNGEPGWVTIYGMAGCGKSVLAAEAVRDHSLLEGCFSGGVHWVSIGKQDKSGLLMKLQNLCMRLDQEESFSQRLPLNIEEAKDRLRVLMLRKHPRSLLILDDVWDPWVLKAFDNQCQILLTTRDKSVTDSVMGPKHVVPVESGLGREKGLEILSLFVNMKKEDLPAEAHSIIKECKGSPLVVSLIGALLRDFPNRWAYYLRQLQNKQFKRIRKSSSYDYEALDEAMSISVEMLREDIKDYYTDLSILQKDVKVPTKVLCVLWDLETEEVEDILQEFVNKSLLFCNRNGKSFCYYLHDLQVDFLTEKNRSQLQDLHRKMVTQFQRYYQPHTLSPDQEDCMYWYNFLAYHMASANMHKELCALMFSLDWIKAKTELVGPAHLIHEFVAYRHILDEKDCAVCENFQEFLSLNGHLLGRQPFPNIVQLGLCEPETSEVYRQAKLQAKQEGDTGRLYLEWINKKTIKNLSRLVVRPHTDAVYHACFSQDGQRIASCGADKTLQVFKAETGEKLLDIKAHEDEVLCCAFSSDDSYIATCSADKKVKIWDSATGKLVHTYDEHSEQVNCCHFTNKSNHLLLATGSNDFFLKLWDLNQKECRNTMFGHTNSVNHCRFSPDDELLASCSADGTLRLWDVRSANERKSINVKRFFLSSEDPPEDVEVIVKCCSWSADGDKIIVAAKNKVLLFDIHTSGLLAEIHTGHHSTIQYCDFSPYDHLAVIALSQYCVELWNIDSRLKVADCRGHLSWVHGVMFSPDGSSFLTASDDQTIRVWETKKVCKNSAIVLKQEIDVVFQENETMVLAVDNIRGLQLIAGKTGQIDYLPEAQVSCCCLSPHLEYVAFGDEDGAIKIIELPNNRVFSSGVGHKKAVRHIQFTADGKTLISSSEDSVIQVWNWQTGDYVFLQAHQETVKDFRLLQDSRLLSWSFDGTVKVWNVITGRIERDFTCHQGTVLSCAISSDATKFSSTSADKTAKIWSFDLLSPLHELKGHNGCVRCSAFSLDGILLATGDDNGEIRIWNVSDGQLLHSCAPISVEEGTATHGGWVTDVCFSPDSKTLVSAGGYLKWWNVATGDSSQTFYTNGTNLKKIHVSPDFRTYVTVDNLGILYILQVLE
T1 sequence (P62897 2-105 partner limits assumed): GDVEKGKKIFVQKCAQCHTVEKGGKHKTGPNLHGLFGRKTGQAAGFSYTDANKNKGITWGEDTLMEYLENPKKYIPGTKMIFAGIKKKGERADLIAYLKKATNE
FASN, sequence (P19096 whole entry): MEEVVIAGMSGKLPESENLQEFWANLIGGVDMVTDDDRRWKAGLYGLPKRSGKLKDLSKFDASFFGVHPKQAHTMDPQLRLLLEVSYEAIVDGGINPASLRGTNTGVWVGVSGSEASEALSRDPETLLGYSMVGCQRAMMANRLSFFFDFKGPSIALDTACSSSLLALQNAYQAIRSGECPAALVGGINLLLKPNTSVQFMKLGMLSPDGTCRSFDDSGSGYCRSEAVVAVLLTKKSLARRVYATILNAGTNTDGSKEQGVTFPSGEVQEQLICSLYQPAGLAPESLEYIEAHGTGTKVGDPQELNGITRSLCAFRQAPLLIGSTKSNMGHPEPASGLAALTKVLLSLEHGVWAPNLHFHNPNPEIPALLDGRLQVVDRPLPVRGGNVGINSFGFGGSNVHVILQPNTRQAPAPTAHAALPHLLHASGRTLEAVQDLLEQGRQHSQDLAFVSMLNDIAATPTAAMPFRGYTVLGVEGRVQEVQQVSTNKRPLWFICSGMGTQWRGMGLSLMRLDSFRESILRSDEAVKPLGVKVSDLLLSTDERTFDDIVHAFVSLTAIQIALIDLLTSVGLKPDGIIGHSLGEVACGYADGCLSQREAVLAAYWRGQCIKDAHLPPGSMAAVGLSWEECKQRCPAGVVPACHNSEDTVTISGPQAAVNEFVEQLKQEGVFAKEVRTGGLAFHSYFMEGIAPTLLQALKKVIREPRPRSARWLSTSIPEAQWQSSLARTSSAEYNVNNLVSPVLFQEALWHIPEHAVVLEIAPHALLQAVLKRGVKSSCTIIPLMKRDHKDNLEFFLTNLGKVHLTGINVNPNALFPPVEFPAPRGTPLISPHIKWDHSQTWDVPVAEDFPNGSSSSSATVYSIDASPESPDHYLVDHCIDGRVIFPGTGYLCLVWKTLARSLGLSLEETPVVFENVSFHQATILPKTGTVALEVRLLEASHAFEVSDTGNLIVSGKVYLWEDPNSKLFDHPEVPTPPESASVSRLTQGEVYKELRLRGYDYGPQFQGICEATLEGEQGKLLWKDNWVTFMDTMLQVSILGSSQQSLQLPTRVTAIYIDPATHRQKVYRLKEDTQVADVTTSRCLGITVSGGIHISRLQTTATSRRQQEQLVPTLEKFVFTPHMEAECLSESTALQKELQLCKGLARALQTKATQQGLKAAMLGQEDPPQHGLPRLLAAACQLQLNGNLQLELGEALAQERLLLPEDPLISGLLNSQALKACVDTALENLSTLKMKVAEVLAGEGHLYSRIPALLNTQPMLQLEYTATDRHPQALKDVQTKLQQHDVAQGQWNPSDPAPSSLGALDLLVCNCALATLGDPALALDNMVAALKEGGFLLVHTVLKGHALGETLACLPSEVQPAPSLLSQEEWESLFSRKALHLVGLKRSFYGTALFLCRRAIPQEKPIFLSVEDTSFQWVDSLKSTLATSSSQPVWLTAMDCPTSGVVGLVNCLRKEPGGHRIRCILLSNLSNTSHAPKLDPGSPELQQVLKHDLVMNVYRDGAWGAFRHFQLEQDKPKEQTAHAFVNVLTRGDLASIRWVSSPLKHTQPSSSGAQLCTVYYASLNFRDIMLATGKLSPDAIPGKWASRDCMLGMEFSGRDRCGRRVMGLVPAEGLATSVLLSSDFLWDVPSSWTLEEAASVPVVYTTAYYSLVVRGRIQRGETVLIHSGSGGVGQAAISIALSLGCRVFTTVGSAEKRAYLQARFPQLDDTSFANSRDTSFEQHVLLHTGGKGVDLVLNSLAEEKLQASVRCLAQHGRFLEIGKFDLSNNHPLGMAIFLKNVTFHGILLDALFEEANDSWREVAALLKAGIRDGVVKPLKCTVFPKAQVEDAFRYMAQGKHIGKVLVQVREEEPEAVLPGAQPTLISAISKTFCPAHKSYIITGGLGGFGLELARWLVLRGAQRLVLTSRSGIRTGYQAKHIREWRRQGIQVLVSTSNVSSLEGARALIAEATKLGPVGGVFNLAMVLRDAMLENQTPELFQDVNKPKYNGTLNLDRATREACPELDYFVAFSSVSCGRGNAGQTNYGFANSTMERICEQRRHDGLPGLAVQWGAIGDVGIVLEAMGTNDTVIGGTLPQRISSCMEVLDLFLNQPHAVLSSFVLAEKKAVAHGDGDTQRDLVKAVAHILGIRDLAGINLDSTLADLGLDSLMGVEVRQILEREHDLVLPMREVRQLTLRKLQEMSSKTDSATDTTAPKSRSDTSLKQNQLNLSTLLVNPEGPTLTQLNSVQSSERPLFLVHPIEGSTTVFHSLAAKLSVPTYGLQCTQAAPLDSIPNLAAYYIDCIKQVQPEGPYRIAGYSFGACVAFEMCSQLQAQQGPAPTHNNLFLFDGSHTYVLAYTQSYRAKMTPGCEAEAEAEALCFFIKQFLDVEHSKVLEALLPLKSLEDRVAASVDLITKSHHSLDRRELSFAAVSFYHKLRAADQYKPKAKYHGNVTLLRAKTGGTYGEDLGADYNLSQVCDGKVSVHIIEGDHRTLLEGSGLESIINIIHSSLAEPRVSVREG

## CN1C(=O)C(Cc2c[nH]c3ccccc23)NC1=S (stereo not shown) [Nec-1, necrostatin-1]
[1]
  LDH release: No change

## COCc1[nH]c(C(F)(F)F)nc1-c1cc(C(=O)N2CC(c3ccc(C#N)cc3)C2)c(C)cc1C [TVB-3664]
FASN
  cell death (cell viability): did not increase cell death

## CCO[C@@H]1OC(=O)C[C@@H]1NC(=O)[C@@H]1CCCN1C(=O)[C@@H](NC(=O)c1ccc(N)c(Cl)c1)C(C)(C)C [Vx765]
[1]
  LDH release: No change

## COC(=O)CC[C@H](NC(=O)[C@H](CC(C)C)NC(=O)OCc1ccccc1)C(=O)N[C@@H](Cc1cnc[nH]1)C(=O)N[C@@H](CC(=O)OC)C(=O)CF [Z-LEHD-FMK] (Cbz-LE(OMe)HD(OMe)-CH2F)
CASP9; after cisplatin injury, qRT-PCR, kidney
  inflammatory cytokines (Il1b, Csf2, Tnfa, and Cxcl10) and Icam1 expression: lower
CASP9; cisplatin-injected mice
  kidney function and kidney damage: improved kidney function and lessened kidney damage
CASP9; [2]
  BUN level: lower
  serum creatinine level: lower
CASP9; cisplatin-injected mice, vs vehicle
  renal expression of Havcr1: dampened

## COC(=O)C[C@H](NC(=O)[C@H](C)NC(=O)[C@@H](NC(=O)OCc1ccccc1)C(C)C)C(=O)CF [Z-VAD-FMK] (Cbz-Val-Ala-Asp(OMe)-CH2F)
[1]
  LDH release: No change

## Clc1cccc(CN=C2Nc3ccccc3NC23CCNCC3)c1 [liproxstatin1]
Primary TECs; Chmp1a+/- primary TECs, compared with inhibitors of necroptosis, apoptosis, pyroptosis
  cisplatin-induced cytotoxicity: alleviated
Primary TECs; primary TECs from wild-type or Chmp1a+/- mice
  lipid peroxidation (C11 BODIPY 581/591) induced by cisplatin: lower
ferroptosis; listed as Liproxstatin1
  protection from cisplatin-induced injury / kidney disease: protected
ferroptosis; listed as liproxstatin
  protection from cisplatin-induced injury / kidney disease: marked protection
ferroptosis; Chmp1a+/- mice, cisplatin
  Kidney injury marker Kim1: lower
  serum creatinine level: reduced
[1]
  LDH release: reduced this effect
